# Target: T1, ACVR1 (Homo sapiens, UniProt Q04771)
# T1 sequence (Q04771 21-509): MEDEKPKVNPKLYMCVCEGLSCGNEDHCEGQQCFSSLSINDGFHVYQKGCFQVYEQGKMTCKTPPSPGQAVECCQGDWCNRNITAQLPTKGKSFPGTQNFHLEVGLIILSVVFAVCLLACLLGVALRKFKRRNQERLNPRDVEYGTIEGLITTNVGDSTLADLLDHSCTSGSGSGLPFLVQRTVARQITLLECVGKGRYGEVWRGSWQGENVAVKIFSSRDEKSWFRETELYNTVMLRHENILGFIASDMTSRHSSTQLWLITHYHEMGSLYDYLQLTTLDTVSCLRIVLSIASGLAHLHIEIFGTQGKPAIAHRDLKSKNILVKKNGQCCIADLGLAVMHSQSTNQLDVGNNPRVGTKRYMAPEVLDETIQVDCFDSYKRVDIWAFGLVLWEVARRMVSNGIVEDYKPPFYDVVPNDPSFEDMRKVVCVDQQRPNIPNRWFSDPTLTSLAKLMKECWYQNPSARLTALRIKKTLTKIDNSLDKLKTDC
# Test: ([…] Å) of the ACVR1-FKBP12 complex; IC50 from cellular NanoBRET target engagement (HEK-293)
# Type: cell-based
compound,measurement,value
"CCNc1cc(O)c2c(c1)/C=C/C[C@H](O)[C@H](O)C(=O)/C=C\[C@@H](C)[C@H](C)OC2=O [E6201, (3S,4R,5Z,8S,9S,11E)-14-(ethylamino)-8,9,16-trihydroxy-3,4-dimethyl-3,4,9,19-tetrahydro-1H-2-benzoxacyclotetradecine-1,7 (8H)-dione]",IC50,~250 nM
